Experiments:
Type in all cases: in vivo
[1] = Tasting in almond-flavored 2% milk against control without compound; conditions: 0.01 g of a 1% EtOH solution with 0.01 g natural almond flavor in 99.98 g of 2% milk
Procedure: Natural almond flavor 0.01 g and 0.01 g of a 1% solution of 4-(4H-benzo[d][1,3]oxathiin-2-yl)benzonitrile in EtOH were added to 99.98 g of 2% milk and the contents were mixed well. This solution was tasted relative to the control, which was made up of 0.01 g of natural almond flavor and 99.99 g of 2% milk.

[2] = Tasting of a dilute solution in de-ionized water against water as control
Procedure: A 0.1% w/w solution of 5-(4H-benzo[d][1,3]oxathiin-2-yl)-2-methoxyphenol was prepared in ethanol and diluted, with good mixing, into de-ionized water: thereby, generating a 1 ppm solution of 5-(4H-benzo[d][1,3]oxathiin-2-yl)-2-methoxyphenol in water. This solution was tasted using de-ionized water as the control.
A 20 ppm solution of 5-(4H-benzo[d][1,3]oxathiin-2-yl)-2,3-dimethoxyphenol (0.1% w/w in EtOH) was prepared in de-ionized water. The resulting solution was evaluated against de-ionized water as the control.
One gram of a 1000 ppm solution of 2-(4-methoxyphenyl)-4H-benzo[d][1,3]oxathiine in EtOH was added to 99 grams of water generating a 10 ppm taste solution. This solution was tasted relative to water.
One gram of a 1000 ppm solution of 4-(4H-benzo[d][1,3]oxathiin-2-yl)phenol in EtOH was added to 99 grams of water generating a 10 ppm taste solution. This solution was tasted relative to water.

[3] = Tasting in CoolMint Listerine against CoolMint Listerine as control; conditions: 0.08% w/w of a 1.0% w/w EtOH solution in 99.92% w/w CoolMint Listerine
Procedure: A 0.08% w/w sample of 5-(4H-benzo[d][1,3]oxathiin-2-yl)-2,3-dimethoxyphenol (1.0% w/w in EtOH) was added to 99.92% w/w CoolMint Listerine™ and the contents were mixed well. The resulting mixture was tasted using CoolMint Listerine™ as the control.

[4] = Tasting in sweetened lime-flavored beverage against control without compound; conditions: 0.07% w/w of a 1.0% w/w EtOH solution in lime beverage (10% fruit sugar, citric acid)
Procedure: Granulated fruit sugar, 10% w/w, 0.25% w/W of citric acid, 0.24% w/w of FD&C yellow #5 (0.1% w/w in water), 0.24% of FD&C blue #1 (0.01% w/w in water), 0.1% w/w 15 fold lime oil (1.0% w/w in EtOH), 0.03% w/v of sodium citrate and 0.07% w/w of 5-(4H-benzo[d][1,3]oxathiin-2-yl)-2,3-dimethoxyphenol (1.0% w/w in EtOH) were added to 89.07% w/v of de-ionized water. The control was prepared by eliminating 5-(4H-benzo[d][1,3]oxathiin-2-yl)-2,3-dimethoxyphenol and increasing the water content to 89.14%.

[5] = Tasting in sugar/lemon flavor water against control without compound; conditions: 1 gram of 1000 ppm EtOH solution with 5 g sugar, 1 gram 1% lemon flavor, 93 grams water
Procedure: Five grams of sugar, 1 gram of a 1% solution of lemon flavor in EtOH and 1 gram of a 1000 ppm solution of 2-(4-methoxyphenyl)-4H-benzo[d][1,3]oxathiine in EtOH were added to 93 grams water. The resulting solution was tasted relative to a control made up of 5 g sugar, 1 gram lemon flavor and 94 g water.
Five grams of sugar, 1 gram of a 1% solution of lemon flavor in EtOH and 1 gram of a 1000 ppm solution of 4-(4H-benzo[d][1,3]oxathiin-2-yl)phenol in EtOH were added to 93 grams water. The resulting solution was tasted relative to a control made up of 5 g sugar, 1 gram lemon flavor and 94 g water.

[6] = Tasting in banana-flavored thawed vanilla ice cream against control without compound; conditions: 0.02 g of a 1% EtOH solution with 0.02 g banana flavor in 99.96 g thawed vanilla ice cream
Procedure: Vanilla ice cream was thawed in the microwave for 20 seconds. Next, 0.02 g of N&A banana ice cream flavor and 0.02 g of a 1% solution of 5-(4H-benzo[d][1,3]oxathiin-2-yl)-2-ethoxyphenol in EtOH were added to 99.96 g of the thawed vanilla ice cream. The resulting mixture was mixed well with a spoon and tasted relative to the control, which was made up of 0.02 g of the N&A banana flavor in 99.98 g of the thawed vanilla ice cream.

[7] = Tasting in pistachio-flavored sweetened milk against control without compound; conditions: 0.8 ppm sample in pistachio-flavored sweetened milk
Procedure: A pistachio-flavored sweetened milk was prepared using 87.52% by weight of 2% reduced fat milk, 10% by weight of granulated fruit sugar, 1.4% w/w of FD&C Blue #1 (0.01% w/w in water), 0.8% w/w of FD&C yellow #5 (0.1% w/w in water). 0.2% w/w of natural pistachio flavor (Givaudan) and 0.08% of a 0.10% w/w solution of 5-(4H-benzo[d][1,3]oxathiin-2-yl)-2-methoxyphenol in ethanol generating a 0.8 ppm sample. The control was prepared the same by increasing the milk to 87.6% and leaving out 5-(4H-benzo[d][1,3]oxathiin-2-yl)-2-methoxyphenol.

[8] = Tasting in cantaloupe-flavored taffy against control without compound; conditions: 0.14% w/w of a 0.1% w/v EtOH solution in cantaloupe-flavored taffy with malic acid
Procedure: A desired quantity of taffy was chipped off using hammer and chisel and melted in the microwave for 5-30 seconds depending on batch size. Next, 1.2% w/w of a cantaloupe flavor (Givaudan) was added to 98.26% w/w sample of the taffy followed by 0.4% w/w of granular malic acid and 0.14% w/w of 5-(4H-benzo[d][1,3]oxathiin-2-yl)-2-methoxyphenol (0.1% w/v in EtOH). The control sample was produced the same by increasing the taffy base to make up for the absence of 5-(4H-benzo[d][1,3]oxathiin-2-yl)-2-methoxyphenol in the formula. In both the control and the experimental sample, the contents were well mixed by hand while wearing gloves. The taffy was shaped into individual portions and covered in an airtight container overnight.

[9] = 10 ppm taste solution in water, tasted relative to water

**Q.** Which “Comments on flavor modification” value [1] does the source give for `N#Cc1ccc(C2OCc3ccccc3S2)cc1` (stereo not drawn) [Example 3, 4-(4H-benzo[d][1,3]oxathiin-2-yl)benzonitrile] here?
**A.** stronger flavor, more toasted note, earthy note, more authentic, cooling, bitter almond like, sweeter, more nutty and nut skin

**Q.** For `COc1cc(C2OCc3ccccc3S2)cc(O)c1OC` (stereo not drawn) [Example 2, 5-(4H-benzo[d][1,3]oxathiin-2-yl)-2,3-dimethoxyphenol], which “Comments on flavor properties” value ([2]; 20 ppm solution in de-ionized water, control de-ionized water) is on record?
**A.** cooling, sweet, burns tongue, lingering sweetness, bitter and lingering cooling

**Q.** And the “Comments on flavor modification” value [3]?
**A.** retronasal burn, cooling enhancement, intensifies flavor, increased eucalyptus, slow onset then strong burn, sweet and alcohol enhancement

**Q.** What about the “Comments on flavor modification” value [4] of the same compound?
**A.** sweet, cooling, astringent, juicy, mouth-watering and tart/bite

**Q.** With `COc1ccc(C2OCc3ccccc3S2)cc1` (stereo not drawn) [2-(4-methoxyphenyl)-4H-benzo[d][1,3]oxathiine] as the compound, how does the “Comments on flavor properties” value [2, 9] read?
**A.** cooling, slightly anisic, lingering cooling

**Q.** What about the “Comments on flavor modification” value [5] of the same compound?
**A.** cooling, anise, sweeter, bitter peel, more acidic, tingle, lingering flavor, better aroma and refreshing

**Q.** For `Oc1ccc(C2OCc3ccccc3S2)cc1` (stereo not drawn) [Example 4, 4-(4H-benzo[d][1,3]oxathiin-2-yl)phenol], which “Comments on flavor properties” value [2, 9] is on record?
**A.** slightly sweet and slightly alliaceous

**Q.** What about the “Comments on flavor modification” value [5] of the same compound?
**A.** cooling, dirty, sweeter, lemon peel, nutty and bitter

**Q.** With `CCOc1ccc(C2OCc3ccccc3S2)cc1O` (stereo not drawn) [Example 1, 5-(4H-benzo[d][1,3]oxathiin-2-yl)-2-ethoxyphenol] as the compound, how does the “Comments on flavor modification” value [6] read?
**A.** enhances flavor, makes the banana riper, increases creaminess, sweeter and cooling

**Q.** With `COc1ccc(C2OCc3ccccc3S2)cc1O` (stereo not drawn) [5-(4H-benzo[d][1,3]oxathiin-2-yl)-2-methoxyphenol] as the compound, how does the “Comments on flavor modification” value [7] read?
**A.** enhanced flavor impact, sweeter, cooling, enhanced creaminess, enhanced nutty character, sour aftertaste and brighter

**Q.** And the “Comments on flavor properties relative to the control” value ([2]; 1 ppm solution in water, control de-ionized water)?
**A.** sweet, cooling and lingering

**Q.** What about the “Comments on flavor modification” value [8] of the same compound?
**A.** sweeter, cooling, enhanced sourness, salivating, aroma enhancement and increased impact

— patent publication US8309598B2, “Cooling compounds” (Givaudan S.A., priority 2007, dated 2012)
